According to patent US20240240226A1, “FLUOROGENIC ASSAY FOR RAPID SCREENING OF BACTERIAL BETA-LACTAMASE ACTIVITY” (The Board of Trustees of the Leland Stanford Junior …, priority 2021, published 2024):
Several values for one entry are separate records, joined by “and”; a condition that tells them apart may be missing. Equal entries are not always repeated.

How the values were obtained:
esterase = assay: Response of CDA to H2O2 with esterases alone; type: biochemical
[1] = system: β-lactamase producing bacteria; assay: Two-step filtration CDA/H2O2 assay of bacteria in synthetic urine; type: cell-based, E. coli, K. pneumoniae, E. cloacae, S. marcescens; conditions: for bacteria concentration in urine detectable: two-step filtration, 250-fold enrichment, H2O2 1 mM
Description: FIG. 4 illustrates the detection of lactam-resistant bacteria in urine samples. a) Illustration of the workflow in bacteria isolation and concentration from a urine sample for detection. The sample is first filtrated by a 5-μm filter to trap cells and large debris followed by a 0.22-μm filter to trap bacteria. The 0.22-μm filter is washed once before PBS/H2O2 (1 mM) is directed through the 0.22-μm filter in the opposite direction with a new syringe to recover the concentrated bacteria for detection in a plate reader. b) Longitudinal monitoring of fluorescence enhancement with CDA and concentrated E. coli, K. pneumoniae, K. pneumoniae/KPC, E. coli/TEM-1, E. coli/IMP-1, E. coli/KPC-3, E. cloacae/IMP, S. marcescens/SME, and E. coli/OXA-48 in the presence of H2O2 (1 mM). Star* indicate clinical isolates. The study was duplicated at room temperature with PBS as the buffer. The signal of CDA alone in PBS containing H2O2 (1 mM) was subtracted and the absolute values were plotted. The working concentration of CDA was 10 μM. Data were collected on a Tecan Safire microplate reader with excitation at 570 nm and emission at 600 nm. A.U. indicates arbitrary units.
To develop an easy-to-use, point-of-care assay for screening cephalosporin and carbapenem resistance, a simple two-step filtration method was employed (FIG. 26) to prepare and concentrate pathogenic bacteria, similar to a procedure applied for improving culture-based AST previously (Avesar et al., Procs. Nat. Acad. Sci. U.S.A, 2017, 114, E5787-E5795). […] The 5-micron filter would trap particles including cells and large debris, and bacteria would be collected by the 0.22-micron filter and washed by PBS. A reverse elution with PBS containing 1 mM H2O2 allowed immediate high-throughput analysis by a plate reader in a 96-well plate precoated with CDA. […] 50 mL of synthetic urine spiked with bacteria could be concentrated to approximately 200 μL ready-to-use suspension within a few minutes; polypropylene filters recover bacteria more efficiently (>90%) than commonly used nylon filters (FIG. 27). […]

K. pneumoniae/KPC = assay: CDA/H2O2 detection of K. pneumoniae expressing KPC carbapenemase; type: cell-based; conditions: clinical isolate, H2O2 1 mM, within 2-3 hours
Description: FIG. 3 illustrates the characterization of CDA with HRP, H2O2, E. coli expressing TEM-1 Bla (E. coli/TEM-1) and IMP-1 carbapenemase (E. coli/IMP-1), and K. pneumoniae expressing KPC carbapenemase (K. pneumoniae/KPC). a) Fluorescence enhancement of CDA incubated with different concentrations of E. coli expressing TEM-1 Bla. b) Fluorescence enhancement of CDA; HRP (1 unit/mL), H2O2 (1 μM), and either viable E. coli expressing TEM-1 Bla or bacterial lysate extracted from equal c.f.u. per milliliter. c) Fluorescence enhancement of CDA incubated with different concentrations of E. coli expressing TEM-1 Bla (H2O2, 1 mM). d) Fluorescent intensity of E. coli and E. coli/TEM-1 preincubated with CDA for 20 hours upon addition of H2O2 (500 μM) for 5 min. Error bars represent ±SD, n=3. * p<0.0332; **p<0.0021, ****p<0.0001, ns: not significant. e) Fluorescence enhancement of CDA incubated with different concentrations of E. coli expressing IMP-1 carbapenemase in the presence of H2O2 (1 mM). f) Fluorescence enhancement of CDA incubated with different concentrations of K. pneumoniae expressing KPC carbapenemase (H2O2, 1 mM). […] Data were collected on a Tecan Safire microplate reader with excitation at 570 nm and emission at 600 nm. […]
CDA was also tested for detecting K. pneumoniae. […] Similar to E. coli/KPC-3, 10^6 c.f.u./mL KPC-positive K. pneumoniae could be detected within 2-3 hours. […]

[2] = system: β-lactamases (TEM-1 Bla, AmpC, BlaC, IMP-1, OXA-48, KPC-3); assay: Detection of recombinant β-lactamases by CDA with esterase and H2O2; type: biochemical; conditions: all β-lactamases; esterase 1 μg/mL, H2O2 1 mM, 2 hours, room temperature; 3x SD of negative controls
E. coli/IMP-1 = assay: CDA/H2O2 detection of live E. coli expressing IMP-1 carbapenemase; type: cell-based; conditions: H2O2 1 mM, within 2 hours
Description: FIG. 3 illustrates the characterization of CDA with HRP, H2O2, E. coli expressing TEM-1 Bla (E. coli/TEM-1) and IMP-1 carbapenemase (E. coli/IMP-1), and K. pneumoniae expressing KPC carbapenemase (K. pneumoniae/KPC). a) Fluorescence enhancement of CDA incubated with different concentrations of E. coli expressing TEM-1 Bla. b) Fluorescence enhancement of CDA; HRP (1 unit/mL), H2O2 (1 μM), and either viable E. coli expressing TEM-1 Bla or bacterial lysate extracted from equal c.f.u. per milliliter. c) Fluorescence enhancement of CDA incubated with different concentrations of E. coli expressing TEM-1 Bla (H2O2, 1 mM). d) Fluorescent intensity of E. coli and E. coli/TEM-1 preincubated with CDA for 20 hours upon addition of H2O2 (500 μM) for 5 min. Error bars represent ±SD, n=3. * p<0.0332; **p<0.0021, ****p<0.0001, ns: not significant. e) Fluorescence enhancement of CDA incubated with different concentrations of E. coli expressing IMP-1 carbapenemase in the presence of H2O2 (1 mM). f) Fluorescence enhancement of CDA incubated with different concentrations of K. pneumoniae expressing KPC carbapenemase (H2O2, 1 mM). All the studies were duplicated at room temperature with PBS (pH=7.05) as the buffer unless other indicated. The working concentration of CDA was 10 μM. […] Data were collected on a Tecan Safire microplate reader with excitation at 570 nm and emission at 600 nm. […]

With CC(=O)Oc1ccc2c(c1)Oc1cc(OC(C)=O)ccc1N2C(=O)OCc1ccc(SCC2=C(C(=O)O)N3C(=O)[C@@H](NC(=O)Cc4ccccc4)[C@H]3SC2)cc1 [CDA, 3-(((4-(((3,7-diacetoxy-10H-phenoxazine-10-carbonyl)oxy)methyl)phenyl)thio)methyl)-8-oxo-7-(2-phenylacetamido)-5-thia-1-azabicyclo[4.2.0]oct-2-ene-2-carboxylic acid] the “change of the response of CDA to H2O2” value (esterase) was “barely changed”, the “fluorescent signal over time” value ([1]; all β-lactamase producing bacteria, after 250-fold enrichment) was “time dependent increase of fluorescent signal” and the “bacteria concentration in urine detectable” value ([1]; within 1 hour) was 10^5 c.f.u./mL. The “bacteria concentration in urine detectable” value ([1]; within 2 hours, room temperature) was 10^3 c.f.u./mL and 10^4 c.f.u./mL, the bacteria concentration detected (K. pneumoniae/KPC) was 10^6 c.f.u./mL and the “limit of detection of β-lactamases” value [2] was 1 femtomole. For the same molecule, the bacteria concentration detected (E. coli/IMP-1) was 105 c.f.u./mL.
